Usually IC90 stands for the concentration at which the effect reaches the 90% level.

Counter-ions that a name gives are not always drawn. Like-named read-outs stand apart in the source and are kept apart here.

In patent publication US20230012368A1 (Hoffmann-La Roche Inc., priority 2018, published 2023) one finds IC90 data, which are given here for 26 molecules.

This assay relates to Acinetobacter baumannii ATCC 17978. The experiment in a line: Antimicrobial susceptibility testing: 90% growth inhibitory concentration (IC90) determination. The format is cell-based. The note with it: 90% growth inhibitory concentration, Acinetobacter baumannii ATCC17978, Iso-Sensitest broth, OD 600 nm over 16h, read-out: ATCC17978 IC90. The protocol: Antimicrobial Susceptibility Testing:
90% Growth Inhibitory Concentration (IC90) Determination
The in vitro antimicrobial activity of the compounds was determined according to the following procedure:
The assay used a 10-points Iso-Sensitest broth medium to measure quantitatively the in vitro activity of the compounds against Acinetobacter baumannii ATCC 17978 and Acinetobacter baumannii ATCC 17961.
Stock compounds in DMSO were serially twofold diluted (e.g. range from 50 to 0.097 μM final concentration) in 384 wells microtiter plates and inoculated with 49 μl the bacterial suspension in Iso-Sensitest medium to have a final cell concentration of ˜5×10^(5) CFU/ml in a final volume/well of 50 ul/well. Microtiter plates were incubated at 35±2° C.
Bacterial cell growth was determined with the measurement of optical density at λ=600 nm each 20 minutes over a time course of 16h. Growth inhibition was calculated during the logarithmic growth of the bacterial cells with determination of the concentration inhibiting 50% (IC50) and 90% (IC90) of the growth.
Table 1 provides the 90% growth inhibitory concentrations (IC90) in micromoles per liter of the compounds of present invention obtained against the strain Acinetobacter baumannii ATCC17978 and Acinetobacter baumannii ATCC17961.

[1] abbreviates: Acinetobacter baumannii, ATCC17978, 16 h.

As to `COc1ccc(-c2cnc3c(Nc4ccc(C(=O)NCCCN)c(C)c4)nccn23)cc1` [Example 51, N-(3-aminopropyl)-4-((3-(4-methoxyphenyl)imidazo [1,2-a]pyrazin-8-yl)amino)-2-methylbenzamide hydrochloride], under setting [1], the 90% effect concentration (IC90) is 960 nM.
As to `CCc1cc(Nc2nccn3c(-c4ccc(OC)c(F)c4F)cnc23)ccc1C(=O)NCCN` [Example 117, N-(2-aminoethyl)-4-((3-(2,3-difluoro-4-methoxyphenyl)imidazo[1,2-a]pyrazin-8-yl)amino)-2-ethylbenzamide dihydrochloride], the 90% effect concentration (IC90) was found to be 560 nM.
Turning to `CCc1cc(Nc2nccn3c(-c4ccc(OC)c(F)c4F)cnc23)ccc1C(=O)NCC1CCN(CCC2CCCN2)CC1` (centres unmarked) [Example 556, 4-[[3-(2,3-difluoro-4-methoxy-phenyl)imidazo[1,2-a]pyrazin-8-yl]amino]-2-ethyl-N-[[1-(2-pyrrolidin-2-ylethyl)-4-piperidyl]methyl]benzamide], the concentration for an effect of 90% (IC90) under setting [1] was 310 nM.
Same read-out and setting: as for `CCc1cc(Nc2nccn3c(-c4ccc(OC)c(F)c4F)cnc23)ccc1C(=O)NCC(O)CNC(=O)CN` (centres unmarked) [Example 374, N-[3-[(2-aminoacetyl)amino]-2-hydroxypropyl]-4-[[3-(2,3-difluoro-4-methoxyphenyl)imidazo[1,2-a]pyrazin-8-yl]amino]-2-ethylbenzamide], the figure is 190 nM.
Still for that read-out and setting: under `COc1ccc(-c2cnc3c(Nc4cc(F)c(C(=O)NCCCN)c(Cl)c4)nccn23)c(F)c1F` [Example 436, N-(3-aminopropyl)-2-chloro-4-((3-(2,3-difluoro-4-methoxyphenyl)imidazo[1,2-a]pyrazin-8-yl)amino)-6-fluorobenzamide] stands 650 nM; under `CCc1cc(Nc2nccn3c(-c4ccc(Oc5ccccn5)c(F)c4F)cnc23)ccc1C(=O)NCCNC(=O)[C@@H](N)CCNC(=N)N` [Example 420, N-[2-[[(2S)-2-amino-4-guanidino-butanoyl]amino]ethyl]-4-[[3-[2,3-difluoro-4-(2-pyridyloxy)phenyl]imidazo [1,2-a]pyrazin-8-yl]amino]-2-ethyl-benzamide; formic acid], 720 nM; under `CCc1cc(Nc2nccn3c(-c4ccc(Oc5ccc(OCCN)cn5)c(F)c4F)cnc23)ccc1C(=O)NC` [Example 512, 4-[[3-[4-[[5-(2-aminoethoxy)-2-pyridyl]oxy]-2,3-difluoro-phenyl]imidazo[1,2-a]pyrazin-8-yl]amino]-2-ethyl-N-methyl-benzamide; formic acid], 510 nM.
Still for that read-out and setting: under `CCc1cc(Nc2nccn3c(-c4ccc(OC)c(F)c4F)cnc23)ccc1C(=O)NCC(=O)NCCN` [Example 430, N-[2-(2-aminoethylamino)-2-oxo-ethyl]-4-[[3-(2,3-difluoro-4-methoxy-phenyl)imidazo[1,2-a]pyrazin-8-yl]amino]-2-ethyl-benzamide; formic acid] stands 230 nM; under `COc1ccc(-c2cnc3c(Nc4ccc(C(=O)NCCCN)c(C)c4F)nccn23)c(F)c1F` [Example 479, N-(3-aminopropyl)-4-((3-(2,3-difluoro-4-methoxyphenyl)imidazo[1,2-a]pyrazin-8-yl)amino)-3-fluoro-2-methylbenzamide], 490 nM.
Consider `COc1ccc(-c2cnc3c(Nc4ccc(C(=O)N(C)CCCC5OCC(N)CO5)c(C)c4)nccn23)cc1F` (centres unmarked) [Example 192, N-[3-(5-amino-1,3-dioxan-2-yl)propyl]-4-[[3-(3-fluoro-4-methoxyphenyl)imidazo[1,2-a]pyrazin-8-yl]amino]-N,2-dimethylbenzamide], for which the IC90 under setting [1] stood at 340 nM.
Same read-out and setting: as for `CCc1cc(Nc2nccn3c(-c4ccc(OC)c(F)c4F)cnc23)ccc1C(=O)NCC(O)CNC(=O)[C@@H](N)CCN` (mixture of isomers) [Example 414, rac-N-(3-((R)-2,4-diaminobutanamido)-2-hydroxypropyl)-4-((3-(2,3-difluoro-4-methoxyphenyl)imidazo[1,2-a]pyrazin-8-yl)amino)-2-ethylbenzamide dihydrochloride], the figure is 390 nM; as for `COc1ccc(-c2cnc3c(Nc4ccc(C(=O)NCCCCCN)c(C)c4)nccn23)c(F)c1F` [Example 491, N-(5-aminopentyl)-4-((3-(2,3-difluoro-4-methoxyphenyl)imidazo[1,2-a]pyrazin-8-yl)amino)-2-methylbenzamide hydrochloride], 41 nM.
Same read-out and setting: under `CCc1cc(Nc2nccn3c(-c4ccc(OCC#CCO)c(F)c4F)cnc23)ccc1C(=O)NCCCN` [Example 419, N-(3-aminopropyl)-4-[[3-[2,3-difluoro-4-(4-hydroxybut-2-ynoxy)phenyl]imidazo[1,2-a]pyrazin-8-yl]amino]-2-ethyl-benzamide] stands 670 nM; under `CCc1cc(Nc2nccn3c(-c4ccc(Oc5ccc(OC)cn5)c(F)c4F)cnc23)ccc1C(=O)NCCNC(=O)[C@@H](N)CCNC(=N)N` [Example 449, N-[2-[[(2S)-2-amino-4-guanidino-butanoyl]amino]ethyl]-4-[[3-[2,3-difluoro-4-[(5-methoxy-2-pyridyl)oxy]phenyl]imidazo [1,2-a]pyrazin-8-yl]amino]-2-ethyl-benzamide; formic acid], 530 nM.
Turning to “tert-butyl 3-[[[4-[[3- [4- (difluoromethoxy) phenyl]imidazo[1,2- a]pyrazin-8- yl]amino]-2-methyl- benzoyl]amino] methyl] pyrrolidine-1- carboxylate [Example 47]”, the IC90 was 1700 nM.
Consider `CCc1cc(Nc2nccn3c(-c4ccc(OCC#N)c(F)c4Cl)cnc23)ccc1C(=O)NCCNC(=O)[C@@H](N)CCCNC(=N)N` [Example 330, N-[2-[[(2S)-2-amino-5-carbamimidamidopentanoyl]amino]ethyl]-4-[[3-[2-chloro-4-(cyanomethoxy)-3-fluorophenyl]imidazo[1,2-a]pyrazin-8-yl]amino]-2-ethylbenzamide;formic acid], for which the concentration for an effect of 90% (IC90) under setting [1] came to 110 nM.
On the same count and under the same terms, as for `CCc1cc(Nc2nccn3c(-c4ccc(OC)c(F)c4F)cnc23)ccc1C(=O)NC(C)(C)CN` [Example 99, N-(1-amino-2-methylpropan-2-yl)-4-((3-(2,3-difluoro-4-methoxyphenyl)imidazo [1,2-a]pyrazin-8-yl)amino)-2-ethylbenzamide hydrochloride], the figure is 350 nM.
The same measure, in the same setting: as for `C#CCCCNC(=O)c1ccc(Nc2nccn3c(-c4ccc(OC)c(F)c4F)cnc23)cc1CC` [Example 481, 4-((3-(2,3-difluoro-4-methoxyphenyl)imidazo[1,2-a]pyrazin-8-yl)amino)-2-ethyl-N-(pent-4-yn-1-yl)benzamide], the figure is 260 nM.
On to `COc1ccc(-c2cnc3c(Nc4ccc(C(=O)NCCCCCCN)c(C)c4)nccn23)cc1` [Example 10, N-(6-aminohexyl)-4-((3-(4-methoxyphenyl)imidazo [1,2-a]pyrazin-8-yl)amino)-2-methylbenzamide hydrochloride], for which, under setting [1], the concentration for an effect of 90% (IC90) was 110 nM.
On the same count and under the same terms, as for `CCc1cc(Nc2nccn3c(-c4ccc(Cl)c(F)c4F)cnc23)ccc1C(=O)NCC1CCNC1` (centres unmarked) [Example 277, 4-[[3-(4-chloro-2,3-difluorophenyl)imidazo[1,2-a]pyrazin-8-yl]amino]-2-ethyl-N-(pyrrolidin-3-ylmethyl)benzamide;hydrochlo-ride], the figure is 700 nM; as for `CCc1cc(Nc2nccn3c(-c4ccc(OC)c(F)c4F)cnc23)ccc1C(=O)N[C@H](C)CNC(=O)[C@@H](N)CCCNC(=N)N` [Example 331, N-[(2R)-1-[[(2S)-2-amino-5-carbamimidamidopentanoyl]amino]propan-2-yl]-4-[[3-(2,3-difluoro-4-methoxyphenyl)imidazo[1,2-a]pyrazin-8-yl]amino]-2-ethylbenzamide;formic acid], 300 nM.
On to `CCc1cc(Nc2nccn3c(-c4ccc(OC(F)F)c(F)c4F)cnc23)ccc1C(=O)NC(CCN)C(F)F` (centres unmarked) [Example 315, N-(4-amino-1,1-difluorobutan-2-yl)-4-[[3-[4-(difluoromethoxy)-2,3-difluorophenyl]imidazo[1,2-a]pyrazin-8-yl]amino]-2-ethylbenzamide; hydrochloride], for which the 90% effect concentration (IC90) came out at 1300 nM.
Consider `COc1ccc(-c2cnc3c(Nc4ccc(C(=O)NCCC5(O)CCNCC5)c(C)c4)nccn23)cc1F` [Example 281, 4-[[3-(3-fluoro-4-methoxyphenyl)imidazo[1,2-a]pyrazin-8-yl]amino]-N-[2-(4-hydroxypiperidin-4-yl)ethyl]-2-methylbenzamide;2,2,2-trifluoroacetic acid], for which the IC90 under setting [1] was found to be 930 nM.
Turning to `CCc1cc(Nc2nccn3c(-c4ccc(OC)c(F)c4F)cnc23)ccc1C(=O)NC(C)(C)CNC(=O)[C@@H](N)CCCCN` [Example 326, N-[1-[[(2S)-2,6-diaminohexanoyl]amino]-2-methylpropan-2-yl]-4-[[3-(2,3-difluoro-4-methoxyphenyl)imidazo[1,2-a]pyrazin-8-yl]amino]-2-ethylbenzamide], under setting [1], the concentration for an effect of 90% (IC90) was found to be 190 nM.
Take `CCc1cc(Nc2nccn3c(-c4ccc(OC)c(F)c4F)cnc23)ccc1C(=O)NCCCCC(=O)N1CCN[C@H](CO)C1` [Example 163, 4-[[3-(2,3-difluoro-4-methoxy-phenyl)imidazo[1,2-a]pyrazin-8-yl]amino]-2-ethyl-N-[5-[(3S)-3-(hydroxymethyl)piperazin-1-yl]-5-oxo-pentyl]benzamide]: the concentration for an effect of 90% (IC90) under setting [1] stood at 80 nM.
Consider `COc1ccc(-c2cnc3c(Nc4ccc(C(=O)N(C)CC(=O)N5CCNCC5)c(C)c4)nccn23)cc1F` [Example 5, hydrochloride], for which the 90% effect concentration (IC90) turned out to be 650 nM.
